Assay results taken from PubChem BioAssay AID2060619 (Molecular Pharmacology Branch, DTP, NCI, 2025).

Tested on: 323965-272-R-J2-PDC complex spheroid viability
Assay: Anticancer human tumor 323965-272-R-J2-PDC patient-derived pancreatic carcinoma cell line growth inhibition [CLK]
Details: for IC50: curve of first compound; for viability, T/C: stronger effect = lower value
Method in brief: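 Multi-cell-type spheroids combined patient-derived tumor cells with HUVEC endothelial cells and human mesenchymal stem cells. Paired agents were dosed in half-log steps down from about clinical Cmax, or from 10 microM where Cmax was unknown.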

[1] = second compound 0.0316 µM, first compound 0.0316 µM
[2] = second compound 0.0316 µM, first compound 0.1 µM
[3] = second compound 0.0316 µM, first compound 0.316 µM
[4] = second compound 0.0316 µM, first compound 1 µM
[5] = second compound 0.1 µM, first compound 0.0316 µM
[6] = second compound 0.1 µM, first compound 0.1 µM
[7] = second compound 0.1 µM, first compound 0.316 µM
[8] = second compound 0.1 µM, first compound 1 µM
[9] = second compound 0.316 µM, first compound 0.0316 µM
[10] = second compound 0.316 µM, first compound 0.1 µM
[11] = second compound 0.316 µM, first compound 0.316 µM
[12] = second compound 0.316 µM, first compound 1 µM
[13] = second compound 1 µM, first compound 0.0316 µM
[14] = second compound 1 µM, first compound 0.1 µM
[15] = second compound 1 µM, first compound 0.316 µM
[16] = second compound 1 µM, first compound 1 µM
[17] = second compound 3.16 µM, first compound 0.0316 µM
[18] = second compound 3.16 µM, first compound 0.1 µM
[19] = second compound 3.16 µM, first compound 0.316 µM
[20] = second compound 3.16 µM, first compound 1 µM
[21] = second compound 10 µM, first compound 0.0316 µM
[22] = second compound 10 µM, first compound 0.1 µM
[23] = second compound 10 µM, first compound 0.316 µM
[24] = second compound 10 µM, first compound 1 µM
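Further: spheroids exposed to agents for seven days before readout.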
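Wherever viability, T/C is given: percent of DMSO vehicle control wells so 100% = untreated growth.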

With `C=CC(=O)Nc1cc(Nc2nccc(-c3cn(C)c4ccccc34)n2)c(OC)cc1N(C)CCN(C)C` + CNC(=O)c1ccc(Nc2nc(OC3CCCC3)c3c(-c4ccc5nc(C)oc5c4)c[nH]c3n2)c(OC)c1 the IC50 (second compound 0.0316 µM) was > 300 nM, the IC50 (second compound 0.1 µM) was 171 nM and the IC50 (second compound 0.316 µM) was 10.9 nM. For the same compound, the IC50 (second compound 1 µM) was < 0.949 nM, the IC50 (second compound 3.16 µM) was < 0.949 nM and the IC50 (second compound 10 µM) was < 0.949 nM. For the same compound, the viability, T/C (second compound 0.0316 µM, first compound 0.000949 µM) was 101%, the viability, T/C (second compound 0.0316 µM, first compound 0.003 µM) was 110% and the viability, T/C (second compound 0.0316 µM, first compound 0.00949 µM) was 86%. For the same compound, the viability, T/C (second compound 0.0316 µM, first compound 0.03 µM) was 85.1%, the viability, T/C (second compound 0.0316 µM, first compound 0.0949 µM) was 81.9% and the viability, T/C (second compound 0.0316 µM, first compound 0.3 µM) was 83.5%. For the same compound, the viability, T/C (second compound 0.1 µM, first compound 0.000949 µM) was 70.8%, the viability, T/C (second compound 0.1 µM, first compound 0.003 µM) was 71.8% and the viability, T/C (second compound 0.1 µM, first compound 0.00949 µM) was 62.8%. The viability, T/C (second compound 0.1 µM, first compound 0.03 µM) was 60.1%, the viability, T/C (second compound 0.1 µM, first compound 0.0949 µM) was 57.1% and the viability, T/C (second compound 0.1 µM, first compound 0.3 µM) was 44.8%. The viability, T/C (second compound 0.316 µM, first compound 0.000949 µM) was 54.5%, the viability, T/C (second compound 0.316 µM, first compound 0.003 µM) was 55.5% and the viability, T/C (second compound 0.316 µM, first compound 0.00949 µM) was 46.9%. It also gave a viability, T/C (second compound 0.316 µM, first compound 0.03 µM) of 48%, a viability, T/C (second compound 0.316 µM, first compound 0.0949 µM) of 40.5% and a viability, T/C (second compound 0.316 µM, first compound 0.3 µM) of 31.6%. It also gave a viability, T/C (second compound 1 µM, first compound 0.000949 µM) of 41.9%, a viability, T/C (second compound 1 µM, first compound 0.003 µM) of 39% and a viability, T/C (second compound 1 µM, first compound 0.00949 µM) of 40.7%. The viability, T/C (second compound 1 µM, first compound 0.03 µM) was 34.4%, the viability, T/C (second compound 1 µM, first compound 0.0949 µM) was 34.2% and the viability, T/C (second compound 1 µM, first compound 0.3 µM) was 26.8%. The viability, T/C (second compound 3.16 µM, first compound 0.000949 µM) was 36.6%, the viability, T/C (second compound 3.16 µM, first compound 0.003 µM) was 43.6% and the viability, T/C (second compound 3.16 µM, first compound 0.00949 µM) was 37.6%. For the same compound, the viability, T/C (second compound 3.16 µM, first compound 0.03 µM) was 34.6%, the viability, T/C (second compound 3.16 µM, first compound 0.0949 µM) was 28.5% and the viability, T/C (second compound 3.16 µM, first compound 0.3 µM) was 29%. It also gave a viability, T/C (second compound 10 µM, first compound 0.000949 µM) of 45.3%, a viability, T/C (second compound 10 µM, first compound 0.003 µM) of 39.3% and a viability, T/C (second compound 10 µM, first compound 0.00949 µM) of 38.8%. It also gave a viability, T/C (second compound 10 µM, first compound 0.03 µM) of 31.4%, a viability, T/C (second compound 10 µM, first compound 0.0949 µM) of 32.8% and a viability, T/C (second compound 10 µM, first compound 0.3 µM) of 27.7%.
With `CCN1CCN(Cc2ccc(Nc3ncc(F)c(-c4cc(F)c5nc(C)n(C(C)C)c5c4)n3)nc2)CC1` + CNC(=O)c1ccc(Nc2nc(OC3CCCC3)c3c(-c4ccc5nc(C)oc5c4)c[nH]c3n2)c(OC)c1 the IC50 (second compound 0.0316 µM) was > 1000 nM, the IC50 (second compound 0.1 µM) was > 1000 nM and the IC50 (second compound 0.316 µM) was > 1000 nM. The IC50 (second compound 1 µM) was < 3.16 nM, the IC50 (second compound 3.16 µM) was < 3.16 nM and the IC50 (second compound 10 µM) was < 3.16 nM. It also gave a viability, T/C (second compound 0.0316 µM, first compound 0.00316 µM) of 90.3%, a viability, T/C (second compound 0.0316 µM, first compound 0.01 µM) of 103% and a viability, T/C [1] of 86.9%. It also gave a viability, T/C [2] of 68.4%, a viability, T/C [3] of 66.2% and a viability, T/C [4] of 74.3%. It also gave a viability, T/C (second compound 0.1 µM, first compound 0.00316 µM) of 84.9%, a viability, T/C (second compound 0.1 µM, first compound 0.01 µM) of 73.4% and a viability, T/C [5] of 60.6%. It also gave a viability, T/C [6] of 63.1%, a viability, T/C [7] of 55.7% and a viability, T/C [8] of 67.6%. For the same compound, the viability, T/C (second compound 0.316 µM, first compound 0.00316 µM) was 64.1%, the viability, T/C (second compound 0.316 µM, first compound 0.01 µM) was 53.4% and the viability, T/C [9] was 54.2%. The viability, T/C [10] was 44.2%, the viability, T/C [11] was 50.6% and the viability, T/C [12] was 57.6%. It also gave a viability, T/C (second compound 1 µM, first compound 0.00316 µM) of 48.5%, a viability, T/C (second compound 1 µM, first compound 0.01 µM) of 40.5% and a viability, T/C [13] of 45.9%. For the same compound, the viability, T/C [14] was 49.4%, the viability, T/C [15] was 40.4% and the viability, T/C [16] was 61.7%. The viability, T/C (second compound 3.16 µM, first compound 0.00316 µM) was 42.8%, the viability, T/C (second compound 3.16 µM, first compound 0.01 µM) was 39.2% and the viability, T/C [17] was 37.6%. For the same compound, the viability, T/C [18] was 39.8%, the viability, T/C [19] was 43.1% and the viability, T/C [20] was 46.8%. For the same compound, the viability, T/C (second compound 10 µM, first compound 0.00316 µM) was 42.7%, the viability, T/C (second compound 10 µM, first compound 0.01 µM) was 46.4% and the viability, T/C [21] was 41.5%. For the same compound, the viability, T/C [22] was 38.5%, the viability, T/C [23] was 46% and the viability, T/C [24] was 48.5%.
Work on `Nc1ccccc1NC(=O)c1ccc(CNC(=O)OCc2cccnc2)cc1` + CNC(=O)c1ccc(Nc2nc(OC3CCCC3)c3c(-c4ccc5nc(C)oc5c4)c[nH]c3n2)c(OC)c1 yielded an IC50 (second compound 0.0316 µM) of 5450 nM, an IC50 (second compound 0.1 µM) of 6500 nM and an IC50 (second compound 0.316 µM) of 2410 nM. The IC50 (second compound 1 µM) was 1110 nM, the IC50 (second compound 3.16 µM) was < 31.6 nM and the IC50 (second compound 10 µM) was < 31.6 nM. For the same compound, the viability, T/C [1] was 112%, the viability, T/C [2] was 113% and the viability, T/C [3] was 118%. It also gave a viability, T/C [4] of 93.5%, a viability, T/C (second compound 0.0316 µM, first compound 3.16 µM) of 58.4% and a viability, T/C (second compound 0.0316 µM, first compound 10 µM) of 41.4%. The viability, T/C [5] was 90.3%, the viability, T/C [6] was 89% and the viability, T/C [7] was 98.3%. The viability, T/C [8] was 92.2%, the viability, T/C (second compound 0.1 µM, first compound 3.16 µM) was 62.1% and the viability, T/C (second compound 0.1 µM, first compound 10 µM) was 42.8%. The viability, T/C [9] was 67.2%, the viability, T/C [10] was 69.2% and the viability, T/C [11] was 72.6%. It also gave a viability, T/C [12] of 75.3%, a viability, T/C (second compound 0.316 µM, first compound 3.16 µM) of 43.4% and a viability, T/C (second compound 0.316 µM, first compound 10 µM) of 28.8%. For the same compound, the viability, T/C [13] was 62.4%, the viability, T/C [14] was 57.5% and the viability, T/C [15] was 58.7%. The viability, T/C [16] was 51.7%, the viability, T/C (second compound 1 µM, first compound 3.16 µM) was 35.3% and the viability, T/C (second compound 1 µM, first compound 10 µM) was 26.2%. For the same compound, the viability, T/C [17] was 50.7%, the viability, T/C [18] was 47.7% and the viability, T/C [19] was 49.8%. The viability, T/C [20] was 44%, the viability, T/C (second compound 3.16 µM, first compound 3.16 µM) was 32.2% and the viability, T/C (second compound 3.16 µM, first compound 10 µM) was 25.5%. For the same compound, the viability, T/C [21] was 41%, the viability, T/C [22] was 47.3% and the viability, T/C [23] was 47.1%. For the same compound, the viability, T/C [24] was 37.5%, the viability, T/C (second compound 10 µM, first compound 3.16 µM) was 31.2% and the viability, T/C (second compound 10 µM, first compound 10 µM) was 25.7%.
